Data published in US20250017907A1, “METHOD FOR PREVENTING AND/OR TREATING LIVER FIBROSIS BY USING 6-METHOXYBENZOXAZOLINONE AND COIX LACHRYMA-JOBI L. EXTRACT COMPRISING 6-METHOXYBENZOXAZOLINONE” (Taichung District Agricultural Research and Extension …, priority 2023, published 2025).

Tests used:
[1] = tested on: TAA-induced liver fibrotic C57BL/6J mice; experiment: Oxidative stress indicator tests in liver (SOD, CAT, GSH, MDA); format: in vivo; details: 6 weeks, vs TAA group
Method: For tests of CX, mice were randomly divided into the following four groups (n=8, per group): (1) NT group, (2) TAA group (200 mg/kg), (3) CX group (CX20, 20 mg/kg), and (4) CX group (CX50, 50 mg/kg). NT group received pure saline, and other groups intraperitoneally injected with TAA dissolved into saline thrice a week. Moreover, NT group and TAA group also received 5% propylene glycol, while CX groups received CX dissolved into 5% propylene glycol (prepared in 0.9% saline) by oral gavage once per day.
To examine the effects of CX on liver fibrosis, this example established a TAA-induced liver fibrotic C57BL/6J mouse model. FIG. 6 is a schematic diagram of animal experiment design in 6-methoxybenzoxazolinone (6-MBOA) (CX) groups. For animal experiments, 6-week-old C57BL/6J mice were randomly divided into four groups including NT, TAA, CX20 (TAA+20 mg/kg CX), CX50 (TAA+50 mg/kg CX). (n=8 per group). Mice were given intraperitoneal injection of TAA thrice a week to induce liver fibrosis; they also received CX or the vehicle by oral gavage once per day. At the end of animal tests, mice were sacrificed at 12 weeks of age. Six-week-old mice were randomly divided into four groups, namely NT, TAA, CX20 and CX50 (FIG. 6). Among these groups, only the NT group was oral gavaged and administered with vehicle, the TAA group was oral gavaged with vehicle and administered with TAA, and the CX groups were oral gavaged with CX and administered with TAA. Oral gavage was performed once a day while intraperitoneal injection was given thrice a week; both oral gavage and intraperitoneal injection were continuously administered for six weeks. After that, the mice were sacrificed, and their liver tissues and serum were collected for subsequent analyses.
The procedure of oxidative stress indicator tests is as follows. The enzyme activity of catalase (CAT) and superoxide dismutase (SOD), the content of malondialdehyde (MDA), and the concentration of glutathione (GSH) in tissue were tested to examine changes in oxidative stress levels in TAA-induced liver fibrotic mice. […] All of the kits were commercial products, the working protocol followed the manufacturer's instructions. Briefly, the liver tissue was homogenized in ice-cold buffer and centrifuged at 4° C., then collected supernatant for analysis, finally, read the absorbance of samples with ELISA reader (TECAN, Switzerland).

HSC-T6 cells = experiment: MTT cell viability assay; format: cell-based, rat; details: 0-800 μM, 24 h
Method: The procedure of cell cultures is as follows. HSC-T6 cell is an immortalized cell line isolated from transformed SV40 large T-antigen transformed primary stellate cells of male Sprague-Dawley rats. HSC-T6 cells were maintained in Dulbecco's Modified Eagle Medium (DMEM, Sigma-Aldrich, USA) containing 8% fetal bovine serum (FBS, HyClone, USA), 100 U/mL of penicillin, and 100 μg/mL of streptomycin (Gibco, USA).
The procedure of cell viability assay is as follows. HSC-T6 cells were seed at 1.5×10^4 in 96-well plates and were incubated with CX (0-800 μM) or adlay extracts (0-800 μg/mL) for 24 h. Followed by the determination of cell viability with MTT [3-(4,5-Dimethyl-2-thiazolyl)-2,5-diphenyl-2H-tetrazolium bromide] (Sigma-Aldrich, USA). Briefly, MTT was added to each well at a final concentration of […] and was incubated at 37° C. for 1 h. Next, removed the MTT and added the DMSO to dissolve MTT-formazan crystals formed by metabolically viable cells. Finally, the absorbance of each well was detected by a spectrophotometer at the wavelength of 570 nm.

## COc1ccc2[nH]c(=O)oc2c1 [CX, 6-methoxybenzoxazolinone]
[1]; CX20: 20 mg/kg oral
  liver CAT activity: increased
  liver GSH content: increased
  liver MDA content: decreased
[1]; CX50: 50 mg/kg oral
  liver CAT activity: increased
  liver GSH content: increased
  liver MDA content: decreased
  liver SOD activity: significantly increased
HSC-T6 cells
  dose with no significant effects on cell viability: below 400 μM
